Experiments:
AR 1.0 cells [1] = experiment: Drug accumulation assay: daunorubicin accumulation in AR 1.0 cells; format: cell-based; settings: Mus musculus, 100% = accumulation with verapamil 100 μM, 1 hr, 37° C.
Procedure, shortened: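 AR 1.0 is the MDR-resistant subline of EMT6 mouse mammary carcinoma, grown in RPMI 1640 with 10% foetal calf serum and 2 mM glutamine at 37 °C, 5% CO2. Cells were seeded 48 h before the daunorubicin accumulation assay.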

AR 1.0 cells [2] = experiment: Potentiation index with doxorubicin titration; format: cell-based, mouse; settings: for Potentiation Index at RMA concentration 50 nM: Table C1, RMA 50 nM; for Potentiation Index at RMA concentration 20 nM: Table C1, RMA 20 nM
Procedure, shortened: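 MDR-resistant mouse EMT6 subline AR 1.0 grown four days with a doxorubicin titration (0.263 nM-17.24 μM) plus a fixed compound concentration; proliferation by sulphorhodamine B. Potentiation index derived from doxorubicin IC50 alone versus with compound.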

2780AD cells = experiment: Potentiation of toxicity of various cytotoxic agents, 2780AD cell line; format: cell-based; settings: Taxol; for Potentiation Index at RMA concentration 10 nM: RMA 10 nM; for Potentiation Index at RMA concentration 30 nM: RMA 30 nM; for Potentiation Index at RMA concentration 50 nM: RMA 50 nM
Procedure: (§1) (b) Cells were cultured for four days with a titration of doxorubicin (0.263 nM-17.24 μM) in the presence of a fixed concentration of each compound. Proliferation was quantified as described by Skehen et al, loc cit. The IC50 (concentration required to reduce proliferation to 50% of the untreated controls) for doxorubicin alone and with each compound were derived and used to calculate the potentiation index (PI): [formula]
(§2) The potentiation indices of a selection of compounds using a variety of cell lines and a variety of cytotoxics other than doxorubicin were measured following the protocol described above for doxorubicin, and the results are shown in Table D.

H69/LX4 cells = experiment: Potentiation of toxicity of various cytotoxic agents, H69/LX4 cell line; format: cell-based; settings: for Potentiation Index at RMA concentration 10 nM: RMA 10 nM; for Potentiation Index at RMA concentration 30 nM: RMA 30 nM; for Potentiation Index at RMA concentration 50 nM: RMA 50 nM
Procedure: as §1, §2

AR 1.0 cells [3] = experiment: Potentiation of doxorubicin toxicity: proliferation assay (sulphorhodamine B); format: cell-based, mouse; settings: Mus musculus, 96 h; compound alone; four day proliferation; read-out: Compound Toxicity (IC50)
From the text: (a) Selected compounds of formula (I) were examined for their ability to potentiate the toxicity of doxorubicin in AR 1.0 cells.

AR 1.0 cells [4] = experiment: Potentiation of toxicity of various cytotoxic agents, AR 1.0 cell line; format: cell-based, mouse; settings: for Potentiation Index at RMA concentration 10 nM: RMA 10 nM; for Potentiation Index at RMA concentration 30 nM: RMA 30 nM; for Potentiation Index at RMA concentration 50 nM: RMA 50 nM
Procedure: The EMT6 mouse mammary carcinoma cell line and the MDR resistant subline AR 1.0 were cultured in RPMI 1640 medium containing 10% foetal calf serum and 2 mM glutamine at 37° C. in 5% CO2. Cells were passaged between 1 in 200 and 1 in 2000 in the case of the parental cell line and between 1 in 20 and 1 in 200 in the case of the MDR resistant subline, after trypsinisation (0.25% trypsin, 0.2 gl^-1, EDTA).
as §1, §2

mdr la P-gp gene = settings: cited from earlier work
MDR cells = settings: in vitro and in vivo; cited from earlier work

Compound | IC50 (AR 1.0 cells [1]) | Potentiation Index at RMA concentration 10 nM (AR 1.0 cells [2]; Table C1, RMA 10 nM) | Potentiation Index at RMA concentration 30 nM (AR 1.0 cells [2]; Table C1, RMA 30 nM) | Potentiation Index at RMA concentration 50 nM (AR 1.0 cells [2]) | Potentiation Index at RMA concentration 100 nM (AR 1.0 cells [2]; Table C1, RMA 100 nM) | Potentiation Index at RMA concentration 10 nM (2780AD cells) | Potentiation Index at RMA concentration 30 nM (2780AD cells) | Potentiation Index at RMA concentration 50 nM (2780AD cells) | Potentiation Index at RMA concentration 10 nM (H69/LX4 cells; Vincristine) | Potentiation Index at RMA concentration 30 nM (H69/LX4 cells; Vincristine) | Potentiation Index at RMA concentration 50 nM (H69/LX4 cells; Vincristine) | Potentiation Index at RMA concentration 10 nM (H69/LX4 cells; Taxol) | Potentiation Index at RMA concentration 30 nM (H69/LX4 cells; Taxol) | Potentiation Index at RMA concentration 50 nM (H69/LX4 cells; Taxol) | other results
COc1cc2c(cc1OC)CN(CCc1ccc(NC(=O)c3cc(N(C)C)ccc3NC(=O)c3cnc4ccccc4n3)cc1)CC2 [compound 9596, Quinoxaline-2-carboxylic acid (2-{4-[2-(6,7-dimethoxy-3,4-dihydro-1H-isoquinolin-2-yl)-ethyl]-phenylcarbamoyl}-4-dimethylamino-phenyl)-amide] | 132 nM | 2.68 | 44 | 131 | 354 | 3.5 | 160 | 743 | 1 | 2 | 158 | – | – | – | –
COc1cc2c(cc1OC)CN(CCc1ccc(NC(=O)c3cc(OC)c(OC)cc3NC(=O)c3cnc4ccccc4c3)cc1)CC2 [compound 9576, Quinoline-3-carboxylic acid (2-{4-[2-(6,7-dimethoxy-3,4-dihydro-1H-isoquinolin-2-yl)-ethyl]-phenylcarbamoyl}-4,5-dimethoxy-phenyl)-amide] | 64 nM | – | – | – | – | – | – | – | – | – | – | – | – | – | IC50 (AR 1.0 cells [3]): 930 nM; Potentiation Index at RMA concentration 10 nM (AR 1.0 cells [2]; Table C2, RMA 10 nM): 78; Potentiation Index at RMA concentration 30 nM (AR 1.0 cells [2]; Table C2, RMA 30 nM): 225; Potentiation Index at RMA concentration 100 nM (AR 1.0 cells [2]; Table C2, RMA 100 nM): 280; Potentiation Index at RMA concentration 10 nM (AR 1.0 cells [4]; Etoposide): 26; Potentiation Index at RMA concentration 30 nM (AR 1.0 cells [4]; Etoposide): 45; Potentiation Index at RMA concentration 50 nM (AR 1.0 cells [4]; Etoposide): 51
COc1cc2c(cc1OC)CN(CCc1ccc(NC(=O)c3sccc3NC(=O)c3cnc4ccccc4c3)cc1)CC2 [compound 9594, Quinoline-3-carboxylic acid (2-{4-[2-(6,7-dimethoxy-3,4-dihydro-1H-isoquinolin-2-yl)-ethyl]-phenylcarbamoyl}-thiophen-3-yl)-amide] | 87 nM | 11 | 159 | 307 | 601 | 18 | 425 | 1126 | 2 | 79 | 356 | – | – | – | Potentiation Index at RMA concentration 10 nM (AR 1.0 cells [4]; Taxol): 50; Potentiation Index at RMA concentration 30 nM (AR 1.0 cells [4]; Taxol): 308; Potentiation Index at RMA concentration 50 nM (AR 1.0 cells [4]; Taxol): 407
ivermectin | – | – | – | – | – | – | – | – | – | – | – | – | – | – | increased sensitivity of mice deficient in mdr la P-gp gene (mdr la P-gp gene): up to 100 fold
COc1ccc(CCN(C)CCCC(C#N)(c2ccc(OC)c(OC)c2)C(C)C)cc1OC (stereo not drawn) [Verapamil] | – | – | – | – | – | – | – | – | – | – | – | – | – | – | sensitisation of MDR cells to Vinca alkaloids (MDR cells): shown to sensitise MDR cells to Vinca alkaloids in vitro and in vivo

Further lines, with some results ahead:

IC50 (AR 1.0 cells [1]) | Compound | Potentiation Index at RMA concentration 10 nM (AR 1.0 cells [2]; Table C1, RMA 10 nM) | Potentiation Index at RMA concentration 30 nM (AR 1.0 cells [2]; Table C1, RMA 30 nM) | Potentiation Index at RMA concentration 50 nM (AR 1.0 cells [2]) | Potentiation Index at RMA concentration 100 nM (AR 1.0 cells [2]; Table C1, RMA 100 nM) | Potentiation Index at RMA concentration 10 nM (2780AD cells) | Potentiation Index at RMA concentration 30 nM (2780AD cells) | Potentiation Index at RMA concentration 50 nM (2780AD cells) | Potentiation Index at RMA concentration 10 nM (H69/LX4 cells; Vincristine) | Potentiation Index at RMA concentration 30 nM (H69/LX4 cells; Vincristine) | Potentiation Index at RMA concentration 50 nM (H69/LX4 cells; Vincristine) | Potentiation Index at RMA concentration 10 nM (H69/LX4 cells; Taxol) | Potentiation Index at RMA concentration 30 nM (H69/LX4 cells; Taxol) | Potentiation Index at RMA concentration 50 nM (H69/LX4 cells; Taxol) | other results
87 nM | COc1cc2c(cc1OC)CN(CCc1ccc(NC(=O)c3sccc3NC(=O)c3cnc4ccccc4n3)cc1)CC2 [compound 9597, Quinoxaline-2-carboxylic acid (2-{4-[2-(6,7-dimethoxy-3,4-dihydro-1H-isoquinolin-2-yl)-ethyl]-phenylcarbamoyl}-thiophen-3-yl)-amide] | 80 | 382 | 551 | 878 | 110 | 1427 | 2070 | 1 | 41 | 44 | – | – | – | –
431 nM | COc1cc2c(cc1OC)CN(CCc1ccc(NC(=O)c3c(C)csc3NC(=O)c3cnc4ccccc4c3)cc1)CC2 [compound 9609, Quinoline-3-carboxylic acid (3-{4-[2-(6,7-dimethoxy-3,4-dihydro-1H-isoquinolin-2-yl)-ethyl]-phenylcarbamoyl}-4-methyl-thiophen-2-yl)-amide] | 1.4 | 7.4 | 19 | 68 | – | – | – | – | – | – | 1 | 3 | 9 | Potentiation Index at RMA concentration 20 nM (AR 1.0 cells [2]): 3.4
87 nM | COc1ccc(CN(C)CCc2ccc(NC(=O)c3ccccc3NC(=O)c3cnc4ccccc4n3)cc2)cc1OC [compound 9612, Quinoxaline-2-carboxylic acid [2-(4-{2-[(3,4-dimethoxy-benzyl)-methyl-amino]-ethyl}-phenylcarbamoyl)-phenyl]-amide] | 11 | 95 | 149 | 171 | – | – | – | – | – | – | 51 | 894 | 1329 | –
224 nM | COc1cc2c(cc1OC)CN(CCc1ccc(NC(=O)c3c(C)csc3NC(=O)c3cnc4ccccc4n3)cc1)CC2 [compound 9608, Quinoxaline-2-carboxylic acid (3-{4-[2-(6,7-dimethoxy-3,4-dihydro-1H-isoquinolin-2-yl)-ethyl]-phenylcarbamoyl}-4-methyl-thiophen-2-yl)-amide] | 6.7 | 60 | 118 | 178 | – | – | – | – | – | – | 1.6 | 17 | 130 | Potentiation Index at RMA concentration 20 nM (AR 1.0 cells [2]): 31

— patent US6218393A, “Anthranilic acid derivatives as multi drug resistance modulators” (priority 1997, dated 2001)
